Among the data in patent US11851406B2, “Positive allosteric modulators of the muscarinic acetylcholine receptor M1” (Vanderbilt University, priority 2018, dated 2023) are EC50 and Emax values, retold here.

Molecules are shown by their SMILES. Bounds are passed on as bounds.

What is called EC50 is the concentration needed to bring the measured effect to its halfway point. What is called Emax is the size of the effect at its maximum, as opposed to the concentration needed.

Assay [1] deals with T1, human mAChR M1 (Homo sapiens, UniProt P11229).
T1 sequence (P11229 1-460): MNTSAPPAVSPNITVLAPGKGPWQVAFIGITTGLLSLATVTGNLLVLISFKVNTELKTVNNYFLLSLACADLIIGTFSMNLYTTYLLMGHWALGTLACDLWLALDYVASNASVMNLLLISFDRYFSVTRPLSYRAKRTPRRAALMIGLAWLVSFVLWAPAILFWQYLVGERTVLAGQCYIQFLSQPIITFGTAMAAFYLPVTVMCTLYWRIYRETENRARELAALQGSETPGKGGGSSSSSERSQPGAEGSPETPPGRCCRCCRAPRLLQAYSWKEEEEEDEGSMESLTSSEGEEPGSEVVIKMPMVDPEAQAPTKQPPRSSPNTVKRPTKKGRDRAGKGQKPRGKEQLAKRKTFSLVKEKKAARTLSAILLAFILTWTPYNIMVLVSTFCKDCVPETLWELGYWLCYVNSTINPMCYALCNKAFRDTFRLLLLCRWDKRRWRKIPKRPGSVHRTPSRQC
Nature of the assay: mAChR M1 cell-based functional assay (calcium mobilization), PAM activity: increase in the EC20 acetylcholine response. As to conditions: CHO-K1 cells expressing hM1; calcium flux (Fluo-4); potentiation of EC20 acetylcholine response. From the text:
(§1) Chinese hamster ovary (CHO-K1) cells stably expressing rat (r)M1 were purchased from the American Type Culture Collection and cultured according to their indicated protocol. CHO cells stably expressing human (h)M2, hM3, and hM5 were described previously (Levey, et al., 1991); hM1 and hM4 cDNAs were purchased from Missouri S&T cDNA Resource; rM4 cDNA was provided by T. I. Bonner (National Institutes of Health, Bethesda, Md.). rM2 and rM3 were cloned from a rat brain cDNA library and sequence verified. hM1, rM2, rM3, hM4, and rM4 cDNAs were used to stably transfect CHO-K1 cells purchased from the American Type Culture Collection using Lipofectamine2000. To make stable rM2, hM2, rM3, hM4, and rM4 cell lines for use in calcium mobilization assays, these cells also were stably transfected with a chimeric G-protein (Gqi5) (provided by B. R. Conklin, University of California, San Francisco) using Lipofectamine 2000. rM1, hM1, rM3, hM3, rM5, and hM5 cells were grown in Ham's F-12 medium containing 10% heat-inactivated fetal bovine serum (FBS), 20 mM HEPES, and 50 μg/mL G418 sulfate. rM2-Gqi5, hM2-Gqi5, and hM4-Gqi5 cells were grown in the same medium also containing 500 μg/mL Hygromycin B. Stable rM4-Gqi5 cells were grown in DMEM containing 10% heat-inactivated FBS, 20 mM HEPES, 400 μg/mL G418 sulfate, and 500 μg/mL Hygromycin B.
(§2) For high throughput measurement of agonist-evoked increases in intracellular calcium, CHO-K1 cells stably expressing muscarinic receptors were plated in growth medium lacking G418 and hygromycin at 15,000 cells/20 μL/well in Greiner 384-well black-walled, tissue culture (TC)-treated, clear-bottom plates (VWR). Cells were incubated overnight at 37° C. and 5% CO2. The next day, cells were washed using an ELX 405 (BioTek) with four washes (80 μL) of assay buffer then aspirated to 20 μL. Next, 20 μL of 16 μM Fluo-4/acetoxymethyl ester (Invitrogen, Carlsbad, Calif.) prepared as a 2.3 mM stock in DMSO and mixed in a 1:1 ratio with 10% (w/v) Pluronic F-127 and diluted in assay buffer was added to the wells and the cell plates were incubated for 50 min at 37° C. and 5% CO2. Dye was removed by washing with the ELX 405 (four 80 μL washes of assay buffer) then aspirated to 20 μL. Compound master plates were formatted in an 11 point CRC format (1:3 dilutions) in 100% DMSO with a starting concentration of 10 mM using the BRAVO liquid handler (Agilent). Test compound CRCs were then transferred to daughter plates (240 nL) using the Echo acoustic plate reformatter (Labcyte, Sunnyvale, Calif.) and then diluted into assay buffer (40 μL) to a 2× stock using a Thermo Fisher Combi (Thermo Fisher Scientific, Waltham, Mass.).
(§3) Calcium flux was measured using the Functional Drug Screening System (FDSS) 6000 (Hamamatsu Corporation, Tokyo, Japan) as an increase in the fluorescent static ratio. Compounds were applied to cells (20 μL, 2×) using the automated system of the FDSS 6000 at 4 s into the 300 s protocol and the data were collected at 1 Hz. At 144 s into the 300 s protocol, 10 μL of an EC20 concentration of the muscarinic receptor agonist acetylcholine was added (5×), followed by the addition of 12 μL an EC80 concentration of acetylcholine at the 230 s time point (5×). Agonist activity was analyzed as a concentration-dependent increase in calcium mobilization upon compound addition. Emax values for agonist activity are expressed relative to the maximum for acetylcholine. Positive allosteric modulator activity was analyzed as a concentration-dependent increase in the EC20 acetylcholine response. Antagonist activity was analyzed as a concentration-dependent decrease in the EC80 acetylcholine response. Concentration-response curves were generated using a four-parameter logistical equation in XLfit curve fitting software (IDBS, Bridgewater, N.J.) for Excel (Microsoft, Redmond, Wash.) or Prism (GraphPad Software, Inc., San Diego, Calif.).
A general note: Calcium flux is commonly read through the fluorescence of an indicator in the cells.

In assay [2] the target is T1, human mAChR M1. Nature of the assay: mAChR M1 cell-based functional assay (calcium mobilization), agonist activity upon compound addition alone. As to conditions: CHO-K1 cells expressing hM1; for EC50: calcium mobilization upon compound addition, no acetylcholine; for Emax: compound alone, relative to the maximum for acetylcholine.
From the text: as §1, §2, §3

Regarding `Cn1ccc(-c2ccc(Cc3cc(C(=O)N[C@H]4CCCC[C@@H]4O)nc(-c4ccn(C)n4)c3)cc2)n1` [Compound 34, N-((1S,2S)-2-hydroxycyclohexyl)-6-(1-methyl-1H-pyrazol-3-yl)-4-(4-(1-methyl-1H-pyrazol-3-yl)benzyl)picolinamide], at human mAChR M1 [1], the half-maximal effective concentration (EC50) turned out to be 2020 nM and the maximal effect (Emax) was 63%. Besides, on human mAChR M1 [2], the EC50 was > 10 µM and the Emax is < 5%.
For `Cn1ccc(-c2ccc(Cc3cc(C(=O)N[C@H]4CCC[C@@H]4O)nc(-c4ccn(C)n4)c3)cc2)n1` [Compound 38, N-((1S,2S)-2-hydroxycyclopentyl)-6-(1-methyl-1H-pyrazol-3-yl)-4-(4-(1-methyl-1H-pyrazol-3-yl)benzyl)picolinamide], in that order: 2720 nM, 39%, > 10 µM and < 5%.
As to `Cn1cc(-c2ccc(Cc3cc(C(=O)N[C@H]4CCCC[C@@H]4O)nc(-c4ccn(C)n4)c3)cn2)cn1` [Compound 3, N-((1S,2S)-2-hydroxycyclohexyl)-6-(1-methyl-1H-pyrazol-3-yl)-4-((6-(1-methyl-1H-pyrazol-4-yl)pyridin-3-yl)methyl)picolinamide], on human mAChR M1 [1], the 50% effective concentration (EC50) came out at 4000 nM and the maximal effect (Emax) came to 90%. Moreover, on human mAChR M1 [2], the EC50 is > 10 µM and the maximal effect (Emax) was < 5%.
As to `Cn1cc(-c2cc(Cc3ccc(-c4ccn(C)n4)cc3)cc(C(=O)N[C@H]3CCOC[C@@H]3O)n2)cn1` [Compound 39, N-((3R,4S)-3-hydroxytetrahydro-2H-pyran-4-yl)-4-(4-(1-methyl-1H-pyrazol-3-yl)benzyl)-6-(1-methyl-1H-pyrazol-4-yl)picolinamide], at human mAChR M1 [1], the concentration for a half-maximal effect (EC50) came to 2850 nM and the Emax is 57%. Further, at human mAChR M1 [2], the 50% effective concentration (EC50) was > 10 µM and the maximum response (Emax) is < 5%.
In the case of `Cc1nc(-c2ccc(Cc3cc(C(=O)NC4CCOCC4)nc(-n4cccn4)c3C)cc2)co1` [Compound 51, 5-methyl-4-(4-(2-methyloxazol-4-yl)benzyl)-6-(1H-pyrazol-1-yl)-N-(tetrahydro-2H-pyran-4-yl)picolinamide], the Emax on human mAChR M1 [1] was 69%. Besides, on human mAChR M1 [2], the EC50 was > 10 µM and the Emax was < 5%.
`Cc1c(Cc2ccc(-n3cccn3)cc2)cc(C(=O)N[C@H]2CC[C@@H]2O)nc1-c1ccn(C)n1` [Compound 60, 4-(4-(1H-pyrazol-1-yl)benzyl)-N-((1S,2S)-2-hydroxycyclobutyl)-5-methyl-6-(1-methyl-1H-pyrazol-3-yl)picolinamide]: the Emax on human mAChR M1 [1] was 79%. For the same molecule, on human mAChR M1 [2], the concentration giving a half-maximal response (EC50) is > 10 µM and the Emax was < 5%.
`Cn1ccc(-c2ccc(Cc3cc(C(=O)NC4CC5(COC5)C4)nc(-c4ccn(C)n4)c3)cc2)n1` [Compound 36, 6-(1-methyl-1H-pyrazol-3-yl)-4-(4-(1-methyl-1H-pyrazol-3-yl)benzyl)-N-(2-oxaspiro[3.3]heptan-6-yl)picolinamide]: on human mAChR M1 [1], the EC50 was 3710 nM and the Emax stood at 38%. Besides, on human mAChR M1 [2], the 50% effective concentration (EC50) was > 10 µM and the maximal response (Emax) was < 5%.
The corresponding values for `Cc1c(Cc2ccc(-n3cccn3)cc2)cc(C(=O)NC[C@@H]2CCCO2)nc1-c1ccn(C)n1` [Compound 62, (S)-4-(4-(1H-pyrazol-1-yl)benzyl)-5-methyl-6-(1-methyl-1H-pyrazol-3-yl)-N-((tetrahydrofuran-2-yl)methyl)picolinamide] are 4630 nM, 77%, > 10 µM and < 5%.
As for `Cn1ccc(-c2ccc(Cc3cc(C(=O)N[C@H]4CCC[C@@H]4O)nc(-n4cccn4)c3)cc2)n1` [Compound 33, N-((1S,2S)-2-hydroxycyclopentyl)-4-(4-(1-methyl-1H-pyrazol-3-yl)benzyl)-6-(1H-pyrazol-1-yl)picolinamide], on human mAChR M1 [1], the half-maximal effective concentration (EC50) was found to be 5510 nM and the maximal response (Emax) was found to be 69%. In addition, at human mAChR M1 [2], the EC50 is > 10 µM and the maximal effect (Emax) was < 5%.
On to `Cc1c(Cc2ccc(-n3cccn3)cc2)cc(C(=O)N[C@H]2CCOC[C@@H]2O)nc1-c1ccn(C)n1` [Compound 55, 4-(4-(1H-pyrazol-1-yl)benzyl)-N-((3R,4S)-3-hydroxytetrahydro-2H-pyran-4-yl)-5-methyl-6-(1-methyl-1H-pyrazol-3-yl)picolinamide], for which, at human mAChR M1 [1], the EC50 stood at 324 nM and the Emax amounted to 77%. Moreover, on human mAChR M1 [2], the half-maximal effective concentration (EC50) was 6.7 µM and the maximal response (Emax) stood at 22%.
As for `Cc1c(Cc2ccc(-n3cccn3)cc2)cc(C(=O)NCC2CCOCC2)nc1-c1ccn(C)n1` [Compound 61, 4-(4-(1H-pyrazol-1-yl)benzyl)-5-methyl-6-(1-methyl-1H-pyrazol-3-yl)-N-((tetrahydro-2H-pyran-4-yl)methyl)picolinamide], at human mAChR M1 [1], the maximum response (Emax) amounted to 64%. On human mAChR M1 [2], the concentration giving a half-maximal response (EC50) was > 10 µM and the maximal effect (Emax) was < 5%.
Take `Cc1c(Cc2ccc(-n3cccn3)cc2)cc(C(=O)N[C@H]2CCCC[C@@H]2O)nc1-c1ccn(C)n1` [Compound 56, 4-(4-(1H-pyrazol-1-yl)benzyl)-N-((1S,2S)-2-hydroxycyclohexyl)-5-methyl-6-(1-methyl-1H-pyrazol-3-yl)picolinamide]: on human mAChR M1 [1], the EC50 was found to be 906 nM and the Emax was found to be 81%. Further, on human mAChR M1 [2], the EC50 was > 10 µM and the Emax was < 5%.
As to `Cc1c(Cc2ccc(-c3ccn(C)n3)nc2)cc(C(=O)N[C@H]2CCOC[C@@H]2O)nc1-n1cccn1` [Compound 44, N-((3R,4S)-3-hydroxytetrahydro-2H-pyran-4-yl)-5-methyl-4-((6-(1-methyl-1H-pyrazol-3-yl)pyridin-3-yl)methyl)-6-(1H-pyrazol-1-yl)picolinamide], the half-maximal effective concentration (EC50) at human mAChR M1 [1] was 1090 nM; at human mAChR M1 [2], ≥ 10 µM. The Emax at human mAChR M1 [1] is 83%; on human mAChR M1 [2] it was 23%.
For `Cn1cc(-c2ccc(Cc3cc(C(=O)NC4CCOCC4(C)C)nc(-c4ccn(C)n4)c3)cn2)cn1` (centres unmarked) [Compound 8, N-(3,3-dimethyltetrahydro-2H-pyran-4-yl)-6-(1-methyl-1H-pyrazol-3-yl)-4-((6-(1-methyl-1H-pyrazol-4-yl)pyridin-3-yl)methyl)picolinamide], in that order: 8010 nM, > 10 µM, 75% and < 5%.
